Reference: patent US9340590B2 (priority 2011, dated 2016)
Positions of bridges follow the written chain, without caps; N, C: chain ends. Non-standard residues stand in square brackets, D forms with d. Residues, ends and D or L forms follow the SMILES beside them. *: point of attachment. hCit = NC(=O)NCCCC[C@H](N)C(=O)O; Cit = NC(=O)NCCC[C@H](N)C(=O)O; Pent4ynoyl = C#CCCC(=O)*; Abu = CC[C@H](N)C(=O)O

Legend:
Experiment in all cases: cell-based
hNav1.7 = hNav1.7 (Homo sapiens, UniProt Q15858); format: cell-based; conditions: IonWorks Quattro, use-dependent block, hNav1.7; read-out: IWQ Use Nav1.7
hNav1.5 = hNav1.5 (Homo sapiens, UniProt Q14524); conditions: IonWorks Quattro, use-dependent block, hNav1.5; read-out: IWQ Use Nav1.5
hNav1.3 = hNav1.3 (Homo sapiens, UniProt Q9NY46); conditions: IonWorks Quattro, use-dependent block, hNav1.3; read-out: IWQ Use Nav1.3
Sequence of hNav1.3 (Q9NY46 whole entry, looked up): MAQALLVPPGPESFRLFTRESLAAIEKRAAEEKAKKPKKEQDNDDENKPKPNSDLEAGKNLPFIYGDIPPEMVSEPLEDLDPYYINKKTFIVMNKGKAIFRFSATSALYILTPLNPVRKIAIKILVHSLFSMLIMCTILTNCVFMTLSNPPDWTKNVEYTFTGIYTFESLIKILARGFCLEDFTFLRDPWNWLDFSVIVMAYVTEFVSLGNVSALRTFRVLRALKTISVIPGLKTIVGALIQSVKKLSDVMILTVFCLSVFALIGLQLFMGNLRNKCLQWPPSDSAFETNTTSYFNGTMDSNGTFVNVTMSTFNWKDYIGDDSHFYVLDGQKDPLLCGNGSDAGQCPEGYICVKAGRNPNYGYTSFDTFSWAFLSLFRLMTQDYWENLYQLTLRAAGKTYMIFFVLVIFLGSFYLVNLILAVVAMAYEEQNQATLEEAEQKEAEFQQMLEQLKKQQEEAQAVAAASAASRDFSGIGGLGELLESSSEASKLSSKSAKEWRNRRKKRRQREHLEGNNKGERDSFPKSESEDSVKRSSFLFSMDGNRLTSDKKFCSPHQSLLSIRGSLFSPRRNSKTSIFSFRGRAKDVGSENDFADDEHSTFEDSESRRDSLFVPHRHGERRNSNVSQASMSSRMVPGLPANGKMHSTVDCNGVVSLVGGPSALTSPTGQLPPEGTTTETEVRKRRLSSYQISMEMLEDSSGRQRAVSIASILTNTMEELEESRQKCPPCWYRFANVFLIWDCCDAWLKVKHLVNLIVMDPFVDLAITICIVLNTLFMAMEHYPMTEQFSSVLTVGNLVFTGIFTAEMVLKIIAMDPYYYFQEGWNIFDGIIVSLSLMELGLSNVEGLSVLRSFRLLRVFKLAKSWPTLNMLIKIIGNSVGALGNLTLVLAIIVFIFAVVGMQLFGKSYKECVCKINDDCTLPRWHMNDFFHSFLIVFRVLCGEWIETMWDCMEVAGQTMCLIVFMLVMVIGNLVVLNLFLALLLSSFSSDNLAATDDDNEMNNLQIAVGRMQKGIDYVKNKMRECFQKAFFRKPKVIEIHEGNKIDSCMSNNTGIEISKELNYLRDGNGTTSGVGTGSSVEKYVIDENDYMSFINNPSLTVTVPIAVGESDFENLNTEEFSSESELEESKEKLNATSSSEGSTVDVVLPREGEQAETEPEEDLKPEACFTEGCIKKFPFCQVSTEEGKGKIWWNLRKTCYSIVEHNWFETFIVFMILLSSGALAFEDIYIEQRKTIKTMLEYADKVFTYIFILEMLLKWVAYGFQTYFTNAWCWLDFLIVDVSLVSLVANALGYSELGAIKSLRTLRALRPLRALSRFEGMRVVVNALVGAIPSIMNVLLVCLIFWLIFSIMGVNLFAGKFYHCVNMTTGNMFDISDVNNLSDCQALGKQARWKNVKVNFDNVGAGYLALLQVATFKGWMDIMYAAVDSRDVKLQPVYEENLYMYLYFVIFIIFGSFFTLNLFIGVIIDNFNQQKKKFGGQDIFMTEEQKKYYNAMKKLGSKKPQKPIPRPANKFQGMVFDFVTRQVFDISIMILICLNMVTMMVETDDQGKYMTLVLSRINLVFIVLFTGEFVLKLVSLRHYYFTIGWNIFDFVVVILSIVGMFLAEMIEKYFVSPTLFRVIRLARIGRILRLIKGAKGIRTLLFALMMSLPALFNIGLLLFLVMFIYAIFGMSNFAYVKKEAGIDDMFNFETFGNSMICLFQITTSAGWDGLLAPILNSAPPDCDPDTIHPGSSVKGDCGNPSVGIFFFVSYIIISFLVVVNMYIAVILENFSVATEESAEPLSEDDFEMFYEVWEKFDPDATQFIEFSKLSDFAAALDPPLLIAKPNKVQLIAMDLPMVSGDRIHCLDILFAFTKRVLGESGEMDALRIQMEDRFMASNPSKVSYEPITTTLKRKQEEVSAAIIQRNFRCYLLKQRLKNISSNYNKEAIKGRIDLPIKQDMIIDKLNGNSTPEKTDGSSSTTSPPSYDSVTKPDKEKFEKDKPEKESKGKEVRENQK

Sequence of hNav1.7 (Q15858 whole entry, looked up): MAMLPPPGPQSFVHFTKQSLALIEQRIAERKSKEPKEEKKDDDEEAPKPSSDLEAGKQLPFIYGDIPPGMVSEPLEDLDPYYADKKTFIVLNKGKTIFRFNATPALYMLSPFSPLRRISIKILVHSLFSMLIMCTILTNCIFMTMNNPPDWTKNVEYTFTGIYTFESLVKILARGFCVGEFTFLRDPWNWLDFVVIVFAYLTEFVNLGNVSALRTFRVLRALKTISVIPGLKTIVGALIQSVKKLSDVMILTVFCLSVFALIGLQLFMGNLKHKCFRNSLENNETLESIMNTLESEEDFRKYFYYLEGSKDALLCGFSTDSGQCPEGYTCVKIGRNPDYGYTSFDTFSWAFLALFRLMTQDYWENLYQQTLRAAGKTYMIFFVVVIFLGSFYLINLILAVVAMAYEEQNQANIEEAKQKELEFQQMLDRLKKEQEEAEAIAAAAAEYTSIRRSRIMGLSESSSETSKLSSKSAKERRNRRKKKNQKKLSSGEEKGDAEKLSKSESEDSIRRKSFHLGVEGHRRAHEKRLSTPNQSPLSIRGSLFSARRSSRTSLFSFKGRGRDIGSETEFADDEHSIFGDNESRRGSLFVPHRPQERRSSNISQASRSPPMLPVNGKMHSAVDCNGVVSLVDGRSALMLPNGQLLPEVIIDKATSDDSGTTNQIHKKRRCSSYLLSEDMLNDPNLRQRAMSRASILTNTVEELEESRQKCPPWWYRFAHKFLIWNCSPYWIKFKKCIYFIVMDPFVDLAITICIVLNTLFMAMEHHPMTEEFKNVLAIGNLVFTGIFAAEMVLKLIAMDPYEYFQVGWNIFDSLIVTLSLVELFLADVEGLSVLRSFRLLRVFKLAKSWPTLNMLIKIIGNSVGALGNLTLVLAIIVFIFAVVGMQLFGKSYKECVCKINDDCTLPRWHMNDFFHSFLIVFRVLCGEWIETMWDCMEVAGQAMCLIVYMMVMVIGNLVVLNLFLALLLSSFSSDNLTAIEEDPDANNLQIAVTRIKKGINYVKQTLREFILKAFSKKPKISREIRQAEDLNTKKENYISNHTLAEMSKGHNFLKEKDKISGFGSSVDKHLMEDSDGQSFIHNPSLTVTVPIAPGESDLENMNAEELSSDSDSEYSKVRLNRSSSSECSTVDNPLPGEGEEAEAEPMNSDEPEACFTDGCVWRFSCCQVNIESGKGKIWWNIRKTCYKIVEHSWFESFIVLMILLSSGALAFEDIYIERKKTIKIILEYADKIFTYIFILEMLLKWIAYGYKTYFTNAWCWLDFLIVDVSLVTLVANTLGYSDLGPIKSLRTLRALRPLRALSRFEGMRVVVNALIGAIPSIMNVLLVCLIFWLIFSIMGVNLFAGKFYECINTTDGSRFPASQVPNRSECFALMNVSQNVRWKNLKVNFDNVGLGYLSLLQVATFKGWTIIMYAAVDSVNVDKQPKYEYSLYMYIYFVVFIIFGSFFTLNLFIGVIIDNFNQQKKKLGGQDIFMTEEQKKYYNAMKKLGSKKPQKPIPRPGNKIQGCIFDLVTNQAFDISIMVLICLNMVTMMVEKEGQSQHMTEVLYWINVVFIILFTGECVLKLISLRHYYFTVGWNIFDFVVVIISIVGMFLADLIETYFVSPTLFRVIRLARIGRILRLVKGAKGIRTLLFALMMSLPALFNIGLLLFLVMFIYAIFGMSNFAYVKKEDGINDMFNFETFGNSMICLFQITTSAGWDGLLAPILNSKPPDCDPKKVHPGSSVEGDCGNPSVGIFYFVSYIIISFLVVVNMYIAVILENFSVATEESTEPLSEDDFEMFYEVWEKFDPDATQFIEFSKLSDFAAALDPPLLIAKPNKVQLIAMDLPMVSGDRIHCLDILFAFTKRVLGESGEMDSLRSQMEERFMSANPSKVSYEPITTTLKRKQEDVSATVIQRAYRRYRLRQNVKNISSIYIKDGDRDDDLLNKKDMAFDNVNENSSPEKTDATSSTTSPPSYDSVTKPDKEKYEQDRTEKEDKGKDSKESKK

Row | Structure (SMILES) | IC50 (hNav1.7) [µM] | IC50 (hNav1.5) [µM] | IC50 (hNav1.3) [µM]
1 | CC[C@H](C)[C@@H]1NC(=O)[C@@H]2CSSC[C@@H]3NC(=O)[C@H](C(C)C)NC(=O)[C@H](CC(C)C)NC(=O)[C@H](CC(N)=O)NC(=O)[C@@H]4CCCN4C(=O)[C@H](CCCNC(=N)N)NC(=O)[C@H](CSSC[C@H](NC(=O)[C@@H](N)CC(=O)O)C(=O)N[C@@H](CC(C)C)C(=O)NCC(=O)N[C@@H](C)C(=O)N[C@@H](CCSC)C(=O)N[C@@H](CCCNC(=N)N)C(=O)N[C@@H](CCCCN)C(=O)N2)NC(=O)[C@H](CSSC[C@@H](C(=O)N[C@@H](CCCCN)C(=O)N[C@@H](Cc2ccc(O)cc2)C(=O)N[C@H](C(=O)N[C@@H](Cc2ccccc2)C(N)=O)C(C)C)NC(=O)[C@H](Cc2c[nH]c4ccccc24)NC(=O)[C@H](CCCNC(N)=O)NC(=O)[C@H](Cc2c[nH]cn2)NC(=O)[C@H]([C@@H](C)O)NC(=O)[C@H](CCCNC(=N)N)NC(=O)[C@H](CO)NC3=O)NC(=O)[C@H](CCCCN)NC(=O)[C@H](CC(=O)O)NC(=O)[C@H](CC(N)=O)NC(=O)[C@H](CC(=O)O)NC(=O)[C@@H]2CCCN2C1=O [compound 748] (H-DCLGAMRKCIPDNDKCCRPNLVCSRTH[Cit]WCKYVF-NH2; disulfide 2-17, 9-23, 16-30) | 0.87 | 24.2 | 2.7
2 | CC[C@H](C)[C@@H]1NC(=O)[C@@H]2CSSC[C@@H]3NC(=O)[C@H](C(C)C)NC(=O)[C@H](CC(C)C)NC(=O)[C@H](CC(N)=O)NC(=O)[C@@H]4CCCN4C(=O)[C@H](CCCNC(=N)N)NC(=O)[C@H](CSSC[C@H](NC(=O)[C@@H](N)CC(=O)O)C(=O)N[C@@H](CC(C)C)C(=O)NCC(=O)N[C@@H](C)C(=O)N[C@@H](CCSC)C(=O)N[C@@H](CCCNC(=N)N)C(=O)N[C@@H](CCCCN)C(=O)N2)NC(=O)[C@H](CSSC[C@@H](C(=O)N[C@@H](CCCCN)C(=O)N[C@@H](Cc2ccc(O)cc2)C(=O)N[C@H](C(=O)N[C@@H](Cc2ccccc2)C(N)=O)C(C)C)NC(=O)[C@H](Cc2c[nH]c4ccccc24)NC(=O)[C@H](CCCCNC(N)=O)NC(=O)[C@H](Cc2c[nH]cn2)NC(=O)[C@H]([C@@H](C)O)NC(=O)[C@H](CCCNC(=N)N)NC(=O)[C@H](CO)NC3=O)NC(=O)[C@H](CCCCN)NC(=O)[C@H](CC(=O)O)NC(=O)[C@H](CC(N)=O)NC(=O)[C@H](CC(=O)O)NC(=O)[C@@H]2CCCN2C1=O [compound 749] (H-DCLGAMRKCIPDNDKCCRPNLVCSRTH[hCit]WCKYVF-NH2; disulfide 2-17, 9-23, 16-30) | 0.79 | 20.3 | 2.3
3 | CC[C@H](C)[C@@H]1NC(=O)[C@@H]2CSSC[C@@H]3NC(=O)[C@H](C(C)C)NC(=O)[C@H](CC(C)C)NC(=O)[C@H](CC(N)=O)NC(=O)[C@@H]4CCCN4C(=O)[C@H](CCCNC(=N)N)NC(=O)[C@H](CSSC[C@H](NC(=O)[C@@H](N)CC(=O)O)C(=O)N[C@@H](CC(C)C)C(=O)NCC(=O)NCC(=O)N[C@@H](C(C)C)C(=O)N[C@@H](CCCNC(=N)N)C(=O)N[C@@H](CCCCN)C(=O)N2)NC(=O)[C@H](CSSC[C@@H](C(=O)N[C@@H](CCCCN)C(=O)N[C@@H](Cc2ccc(O)cc2)C(=O)N[C@H](C(=O)N[C@@H](Cc2ccccc2)C(N)=O)C(C)C)NC(=O)[C@H](Cc2c[nH]c4ccccc24)NC(=O)[C@H](CCCCN)NC(=O)[C@H](Cc2c[nH]cn2)NC(=O)[C@H]([C@@H](C)O)NC(=O)[C@H](CCCNC(=N)N)NC(=O)[C@H](CO)NC3=O)NC(=O)[C@H](CCCCN)NC(=O)[C@H](CC(=O)O)NC(=O)[C@H](CC(N)=O)NC(=O)[C@H](CC(=O)O)NC(=O)[C@@H]2CCCN2C1=O [compound 751] (H-DCLGGVRKCIPDNDKCCRPNLVCSRTHKWCKYVF-NH2; disulfide 2-17, 9-23, 16-30) | > 5 | 25.5 | > 5
4 | CC[C@H](C)[C@@H]1NC(=O)CNC(=O)CNC(=O)[C@H](CC(C)C)NC(=O)[C@@H](NC(=O)[C@@H](N)CC(=O)O)CSSC[C@@H]2NC(=O)[C@@H]3CSSC[C@@H](C(=O)N[C@@H](CCCCN)C(=O)N[C@@H](Cc4ccc(O)cc4)C(=O)N[C@H](C(=O)N[C@@H](Cc4ccccc4)C(N)=O)C(C)C)NC(=O)[C@H](Cc4c[nH]c5ccccc45)NC(=O)[C@H](CCCCN)NC(=O)[C@H](Cc4c[nH]cn4)NC(=O)[C@H]([C@@H](C)O)NC(=O)[C@H](CCCNC(=N)N)NC(=O)[C@H](CO)NC(=O)[C@H](CSSC[C@H](NC(=O)[C@H](CCCCN)NC(=O)[C@H](CCCNC(=N)N)NC1=O)C(=O)N[C@@H]([C@@H](C)CC)C(=O)N1CCC[C@H]1C(=O)N[C@@H](CC(=O)O)C(=O)N[C@@H](CC(N)=O)C(=O)N[C@@H](CC(=O)O)C(=O)N[C@@H](CCCCN)C(=O)N3)NC(=O)[C@H](C(C)C)NC(=O)[C@H](CC(C)C)NC(=O)[C@H](CC(N)=O)NC(=O)[C@@H]1CCCN1C(=O)[C@H](CCCNC(=N)N)NC2=O [compound 752] (H-DCLGGIRKCIPDNDKCCRPNLVCSRTHKWCKYVF-NH2; disulfide 2-17, 9-23, 16-30) | > 5 | 25.4 | > 5
5 | CC(C)C[C@@H]1NC(=O)[C@@H](NC(=O)[C@@H](N)CC(=O)O)CSSC[C@@H]2NC(=O)[C@@H]3CSSC[C@@H](C(=O)N[C@@H](CCCCN)C(=O)N[C@@H](Cc4ccc(O)cc4)C(=O)N[C@H](C(=O)N[C@@H](Cc4ccccc4)C(N)=O)C(C)C)NC(=O)[C@H](Cc4c[nH]c5ccccc45)NC(=O)[C@H](CCCCN)NC(=O)[C@H](Cc4c[nH]cn4)NC(=O)[C@H]([C@@H](C)O)NC(=O)[C@H](CCCNC(=N)N)NC(=O)[C@H](CO)NC(=O)[C@H](CSSC[C@H](NC(=O)[C@H](CCCCN)NC(=O)[C@H](CCCNC(=N)N)NC(=O)[C@H](Cc4ccccc4)NC(=O)CNC(=O)CNC1=O)C(=O)N[C@@H](CCC(=O)O)C(=O)N1CCC[C@H]1C(=O)N[C@@H](CC(=O)O)C(=O)N[C@@H](CC(N)=O)C(=O)N[C@@H](CC(=O)O)C(=O)N[C@@H](CCCCN)C(=O)N3)NC(=O)[C@H](C(C)C)NC(=O)[C@H](CC(C)C)NC(=O)[C@H](CC(N)=O)NC(=O)[C@@H]1CCCN1C(=O)[C@H](CCCNC(=N)N)NC2=O [compound 754] (H-DCLGGFRKCEPDNDKCCRPNLVCSRTHKWCKYVF-NH2; disulfide 2-17, 9-23, 16-30) | 0.35 | 34.2 | 0.33
6 | CC[C@H](C)[C@@H]1NC(=O)[C@@H]2CSSC[C@@H]3NC(=O)[C@H](C(C)C)NC(=O)[C@H](CC(C)C)NC(=O)[C@H](CC(N)=O)NC(=O)[C@@H]4CCCN4C(=O)[C@H](CCCNC(=N)N)NC(=O)[C@H](CSSC[C@H](NC(=O)[C@@H](N)CC(=O)O)C(=O)N[C@@H](CC(C)C)C(=O)NCC(=O)NCC(=O)N[C@@H](Cc4ccccc4)C(=O)N[C@@H](CCCNC(=N)N)C(=O)N[C@@H](CCCCN)C(=O)N2)NC(=O)[C@H](CSSC[C@@H](C(=O)N[C@@H](CCCCN)C(=O)N[C@@H](Cc2ccc(O)cc2)C(=O)N[C@H](C(=O)N[C@@H](Cc2ccccc2)C(N)=O)C(C)C)NC(=O)[C@H](Cc2c[nH]c4ccccc24)NC(=O)[C@H](CCC(=O)O)NC(=O)[C@H](Cc2c[nH]cn2)NC(=O)[C@H]([C@@H](C)O)NC(=O)[C@H](CCCNC(=N)N)NC(=O)[C@H](CO)NC3=O)NC(=O)[C@H](CCCCN)NC(=O)[C@H](CC(=O)O)NC(=O)[C@H](CC(N)=O)NC(=O)[C@H](CC(=O)O)NC(=O)[C@@H]2CCCN2C1=O [compound 755] (H-DCLGGFRKCIPDNDKCCRPNLVCSRTHEWCKYVF-NH2; disulfide 2-17, 9-23, 16-30) | > 5 | 15.3 | > 5
7 | C#CCCC(=O)N[C@@H](CC(=O)O)C(=O)N[C@H]1CSSC[C@@H]2NC(=O)[C@@H]3CSSC[C@@H](C(=O)N[C@@H](CCCCN)C(=O)N[C@@H](Cc4ccc(O)cc4)C(=O)N[C@H](C(=O)N[C@@H](Cc4ccccc4)C(N)=O)C(C)C)NC(=O)[C@H](Cc4c[nH]c5ccccc45)NC(=O)[C@H](CCCNC(=N)N)NC(=O)[C@H](Cc4c[nH]cn4)NC(=O)[C@H]([C@@H](C)O)NC(=O)[C@H](CCCNC(=N)N)NC(=O)[C@H](CO)NC(=O)[C@H](CSSC[C@H](NC(=O)[C@H](CCCCN)NC(=O)[C@H](CCCNC(=N)N)NC(=O)[C@H](Cc4ccccc4)NC(=O)[C@H](C)NC(=O)CNC(=O)[C@H](CC(C)C)NC1=O)C(=O)N[C@@H]([C@@H](C)CC)C(=O)N1CCC[C@H]1C(=O)N[C@@H](CC(=O)O)C(=O)N[C@@H](CC)C(=O)N[C@@H](CC(=O)O)C(=O)N[C@@H](CCCCN)C(=O)N3)NC(=O)[C@H](C(C)C)NC(=O)[C@H](CC(C)C)NC(=O)[C@H](CC(N)=O)NC(=O)[C@@H]1CCCN1C(=O)[C@H](CCCNC(=N)N)NC2=O [compound 756] (Pent4ynoyl-DCLGAFRKCIPD[Abu]DKCCRPNLVCSRTHRWCKYVF-NH2; disulfide 2-17, 9-23, 16-30) | 0.18 | 44.4 | 0.26
8 | C#CCCC(=O)N[C@@H](CC(=O)O)C(=O)N[C@H]1CSSC[C@@H]2NC(=O)[C@@H]3CSSC[C@@H](C(=O)N[C@@H](CCCCN)C(=O)N[C@@H](Cc4ccc(O)cc4)C(=O)N[C@H](C(=O)N[C@@H](Cc4ccccc4)C(N)=O)C(C)C)NC(=O)[C@H](Cc4c[nH]c5ccccc45)NC(=O)[C@H](CCCCN)NC(=O)[C@H](Cc4c[nH]cn4)NC(=O)[C@H]([C@@H](C)O)NC(=O)[C@H](CCCNC(=N)N)NC(=O)[C@H](CO)NC(=O)[C@H](CSSC[C@H](NC(=O)[C@H](CCCCN)NC(=O)[C@H](CCCNC(=N)N)NC(=O)[C@H](Cc4ccccc4)NC(=O)[C@H](C)NC(=O)CNC(=O)[C@H](CC(C)C)NC1=O)C(=O)N[C@@H]([C@@H](C)CC)C(=O)N1CCC[C@H]1C(=O)N[C@@H](CC(=O)O)C(=O)N[C@@H](CC)C(=O)N[C@@H](CC(=O)O)C(=O)N[C@@H](CCCCN)C(=O)N3)NC(=O)[C@H](C(C)C)NC(=O)[C@H](CC(C)C)NC(=O)[C@H](CC(N)=O)NC(=O)[C@@H]1CCCN1C(=O)[C@H](CCCNC(=N)N)NC2=O [compound 757] (Pent4ynoyl-DCLGAFRKCIPD[Abu]DKCCRPNLVCSRTHKWCKYVF-NH2; disulfide 2-17, 9-23, 16-30) | 0.71 | 34.9 | 0.28
